Reference: PMC10150366, “Discovery of an In Vivo Chemical Probe for BCL6 Inhibition by Optimization of Tricyclic Quinolinones” (Journal of Medicinal Chemistry, 2023)

How the values were obtained:
Assay type in all cases: cell-based
nAChR(a4/b2) = nAChR(a4/b2) (Homo sapiens, UniProt P17787+P43681); experiment: SAFETYscan Ion Channel nAChR(a4/b2) Blocker
From the text: (§1) Supplement jm3c00155_si_002.xlsx, sheet "SAFETYScan" | column: RC50 (uM); Max Response

DRD1 = DRD1 (Homo sapiens, UniProt P21728); experiment: SAFETYscan cAMP DRD1 Agonist
From the text: as §1

OCI-Ly3 = experiment: 14-day cell proliferation assay, OCI-Ly3; settings: Homo sapiens, 14-day assay, BCL6-independent line
From the text: (§2) DMSO final concentration.
(§3) After a short centrifugation the
(§4) (1st emission filter) / 450-80 nm (2nd emission filter). The % inhibition at each test concentration was […]
(§5) sigmoidal four-parameter logistic fit equation.
(§6) 2.3 Cell proliferation assay
(§7) Aldrich) supplemented with 10% FBS (Gibco). Compounds were initially dispensed into 96-well U-bottom […]
(§8) transferred onto the cells.
(§9) Assay plates containing cells
(§10) (Beckman Coulter). The volume of medium containing 2500 cells in the control well was calculated and this volume of cells was transferred from every well of the assay plates to the corresponding well of the fresh plates containing compound. After 14 days, CellTiter Glo reagent (Promega) was added to the medium in each well of the assay plate at a ratio of 1:2, mixed on a plate shaker, then incubated at room temperature for 10 minutes. Luminescence was measured using an Envision plate reader (Perkin Elmer) and the relative luminescence at each compound concentration, compared to DMSO alone, was calculated. GI50 were determined using a 4-parameter curve fit in Dotmatics (Bishops Stortford, UK).

ADRB1 [1] = biological target: T1, ADRB1 (Homo sapiens, UniProt P08588); experiment: SAFETYscan cAMP ADRB1 Antagonist
From the text: (§11) Supplement jm3c00155_si_002.xlsx, sheet "SAFETYScan" | column: RC50 (uM); Hill; Max Response

GR = biological target: T2, GR (Homo sapiens, UniProt P04150); experiment: SAFETYscan NHR Protein Interaction GR Agonist
T2 sequence (P04150 1-777): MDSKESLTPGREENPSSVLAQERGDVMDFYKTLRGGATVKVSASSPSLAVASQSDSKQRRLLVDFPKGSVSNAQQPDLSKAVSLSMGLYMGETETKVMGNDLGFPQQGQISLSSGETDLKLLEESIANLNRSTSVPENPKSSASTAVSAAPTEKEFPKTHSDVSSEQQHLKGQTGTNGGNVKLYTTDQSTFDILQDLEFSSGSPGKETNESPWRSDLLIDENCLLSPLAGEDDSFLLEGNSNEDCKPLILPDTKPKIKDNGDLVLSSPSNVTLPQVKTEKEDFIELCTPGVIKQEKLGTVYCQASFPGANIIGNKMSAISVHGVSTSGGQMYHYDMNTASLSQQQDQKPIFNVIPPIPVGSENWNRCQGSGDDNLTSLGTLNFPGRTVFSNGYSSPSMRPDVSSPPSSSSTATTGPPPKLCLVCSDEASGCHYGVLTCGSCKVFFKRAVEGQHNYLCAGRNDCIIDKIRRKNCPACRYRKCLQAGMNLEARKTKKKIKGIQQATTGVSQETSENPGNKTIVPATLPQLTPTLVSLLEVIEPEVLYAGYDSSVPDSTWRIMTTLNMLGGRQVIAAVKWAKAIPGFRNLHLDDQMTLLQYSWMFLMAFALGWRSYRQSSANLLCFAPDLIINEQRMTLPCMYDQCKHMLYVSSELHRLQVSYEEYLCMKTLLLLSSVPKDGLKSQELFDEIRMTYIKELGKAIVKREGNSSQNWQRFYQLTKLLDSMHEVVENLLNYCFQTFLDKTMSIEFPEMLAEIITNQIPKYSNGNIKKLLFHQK
From the text: as §1

OPRM1 = OPRM1 (Homo sapiens, UniProt P35372); experiment: SAFETYscan cAMP OPRM1 Antagonist
From the text: as §11

ADRB1 [2] = biological target: T1, ADRB1; experiment: SAFETYscan cAMP ADRB1 Agonist
From the text: as §1

HTR3A = biological target: T3, HTR3A (Homo sapiens, UniProt P46098); experiment: SAFETYscan Ion Channel HTR3A Blocker
T3 sequence (P46098 24-478): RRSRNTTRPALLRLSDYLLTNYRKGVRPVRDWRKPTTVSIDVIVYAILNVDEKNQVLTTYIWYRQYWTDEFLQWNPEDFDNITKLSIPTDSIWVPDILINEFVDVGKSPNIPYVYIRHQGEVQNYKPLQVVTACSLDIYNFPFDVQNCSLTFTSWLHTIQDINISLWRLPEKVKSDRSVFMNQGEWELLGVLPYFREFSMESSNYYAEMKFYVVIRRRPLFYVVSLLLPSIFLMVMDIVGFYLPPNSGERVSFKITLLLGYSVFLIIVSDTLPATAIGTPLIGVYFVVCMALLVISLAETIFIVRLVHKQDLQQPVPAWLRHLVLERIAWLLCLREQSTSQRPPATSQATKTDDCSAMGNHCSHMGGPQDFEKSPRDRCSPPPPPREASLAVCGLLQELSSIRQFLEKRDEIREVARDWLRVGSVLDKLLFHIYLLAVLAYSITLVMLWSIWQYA
From the text: as §1

DRD2S = DRD2S (Homo sapiens, UniProt P14416); experiment: SAFETYscan cAMP DRD2S Antagonist
From the text: as §1

ADORA2A = ADORA2A (Homo sapiens, UniProt P29274); experiment: SAFETYscan Calcium Flux ADORA2A Agonist
From the text: as §1

CHRM3 = CHRM3 (Homo sapiens, UniProt P20309); experiment: SAFETYscan Calcium Flux CHRM3 Agonist
From the text: as §1

OPRK1 = OPRK1 (Homo sapiens, UniProt P41145); experiment: SAFETYscan cAMP OPRK1 Antagonist
From the text: as §1

NMDAR (1A/2B) = NMDAR (1A/2B) (Homo sapiens, UniProt Q05586+Q13224); experiment: SAFETYscan Ion Channel NMDAR (1A/2B) Blocker
From the text: as §1

ADRB2 = ADRB2 (Homo sapiens, UniProt P07550); experiment: SAFETYscan cAMP ADRB2 Antagonist
From the text: as §11

CAV1.2 = CAV1.2 (Homo sapiens, UniProt Q13936); experiment: in vitro
From the text: as §1

HT = experiment: 14-day cell proliferation assay, HT; settings: Homo sapiens, 14-day assay
From the text: as §2, §3, §4, §5, §6, §7, §8, §9, §10

T1 sequence (P08588 whole entry): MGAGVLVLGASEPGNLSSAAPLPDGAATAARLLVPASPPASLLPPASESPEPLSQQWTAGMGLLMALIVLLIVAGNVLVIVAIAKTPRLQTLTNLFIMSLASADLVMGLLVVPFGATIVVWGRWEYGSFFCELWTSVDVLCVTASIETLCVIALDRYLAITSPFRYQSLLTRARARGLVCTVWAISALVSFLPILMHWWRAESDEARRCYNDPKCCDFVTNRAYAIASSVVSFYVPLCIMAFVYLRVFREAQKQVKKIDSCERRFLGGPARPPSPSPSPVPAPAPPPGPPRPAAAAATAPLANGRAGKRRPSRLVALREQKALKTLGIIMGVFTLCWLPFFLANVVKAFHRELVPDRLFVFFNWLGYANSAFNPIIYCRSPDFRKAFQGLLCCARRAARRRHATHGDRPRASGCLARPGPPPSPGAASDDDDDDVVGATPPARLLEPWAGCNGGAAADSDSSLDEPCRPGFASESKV
Chain of OPRM1 (P35372 whole entry): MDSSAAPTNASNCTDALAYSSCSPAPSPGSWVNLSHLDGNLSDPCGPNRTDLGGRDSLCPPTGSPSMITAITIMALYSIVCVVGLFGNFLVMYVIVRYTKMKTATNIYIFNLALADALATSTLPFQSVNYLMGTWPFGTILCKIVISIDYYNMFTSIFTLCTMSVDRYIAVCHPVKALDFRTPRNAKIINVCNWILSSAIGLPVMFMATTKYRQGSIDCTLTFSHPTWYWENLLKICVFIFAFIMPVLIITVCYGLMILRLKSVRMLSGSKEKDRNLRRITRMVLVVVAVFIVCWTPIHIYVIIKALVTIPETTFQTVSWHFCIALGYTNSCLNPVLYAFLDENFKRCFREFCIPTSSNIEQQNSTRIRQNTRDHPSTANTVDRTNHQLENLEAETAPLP
Chain of ADRB2 (P07550 whole entry): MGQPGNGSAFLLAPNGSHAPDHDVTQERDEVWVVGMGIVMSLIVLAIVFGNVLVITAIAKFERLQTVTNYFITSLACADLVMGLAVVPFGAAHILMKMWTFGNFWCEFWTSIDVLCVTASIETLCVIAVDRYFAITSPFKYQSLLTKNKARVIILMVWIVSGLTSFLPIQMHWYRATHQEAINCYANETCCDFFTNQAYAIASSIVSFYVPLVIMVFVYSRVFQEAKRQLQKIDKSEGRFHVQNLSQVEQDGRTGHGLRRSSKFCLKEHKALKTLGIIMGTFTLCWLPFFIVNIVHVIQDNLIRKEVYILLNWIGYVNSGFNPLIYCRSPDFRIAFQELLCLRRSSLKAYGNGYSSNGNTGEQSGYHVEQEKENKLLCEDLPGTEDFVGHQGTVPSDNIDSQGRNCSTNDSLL
Chain of OPRK1 (P41145 whole entry): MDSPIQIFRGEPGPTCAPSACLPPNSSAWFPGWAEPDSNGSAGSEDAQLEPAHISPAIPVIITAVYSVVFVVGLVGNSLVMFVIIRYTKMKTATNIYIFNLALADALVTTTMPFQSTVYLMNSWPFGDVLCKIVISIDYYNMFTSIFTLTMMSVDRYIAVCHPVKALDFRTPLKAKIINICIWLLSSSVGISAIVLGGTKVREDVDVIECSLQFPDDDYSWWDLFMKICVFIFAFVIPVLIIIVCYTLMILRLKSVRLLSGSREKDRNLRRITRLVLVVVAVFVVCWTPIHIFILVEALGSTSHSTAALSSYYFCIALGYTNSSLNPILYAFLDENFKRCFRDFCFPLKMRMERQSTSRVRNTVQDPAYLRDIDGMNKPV
Chain of DRD2S (P14416 1-414 isoform P14416-2): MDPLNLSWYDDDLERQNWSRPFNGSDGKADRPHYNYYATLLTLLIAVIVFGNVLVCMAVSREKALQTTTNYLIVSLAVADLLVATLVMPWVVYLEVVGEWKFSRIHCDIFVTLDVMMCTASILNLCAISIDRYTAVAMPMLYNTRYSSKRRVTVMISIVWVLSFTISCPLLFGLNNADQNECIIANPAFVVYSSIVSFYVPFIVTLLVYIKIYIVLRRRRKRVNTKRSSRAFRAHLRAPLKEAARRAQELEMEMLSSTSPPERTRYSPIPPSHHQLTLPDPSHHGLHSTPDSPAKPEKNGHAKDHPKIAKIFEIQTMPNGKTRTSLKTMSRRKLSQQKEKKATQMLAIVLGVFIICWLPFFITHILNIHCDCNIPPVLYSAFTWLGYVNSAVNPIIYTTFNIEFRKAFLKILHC
Chain of ADORA2A (P29274 whole entry): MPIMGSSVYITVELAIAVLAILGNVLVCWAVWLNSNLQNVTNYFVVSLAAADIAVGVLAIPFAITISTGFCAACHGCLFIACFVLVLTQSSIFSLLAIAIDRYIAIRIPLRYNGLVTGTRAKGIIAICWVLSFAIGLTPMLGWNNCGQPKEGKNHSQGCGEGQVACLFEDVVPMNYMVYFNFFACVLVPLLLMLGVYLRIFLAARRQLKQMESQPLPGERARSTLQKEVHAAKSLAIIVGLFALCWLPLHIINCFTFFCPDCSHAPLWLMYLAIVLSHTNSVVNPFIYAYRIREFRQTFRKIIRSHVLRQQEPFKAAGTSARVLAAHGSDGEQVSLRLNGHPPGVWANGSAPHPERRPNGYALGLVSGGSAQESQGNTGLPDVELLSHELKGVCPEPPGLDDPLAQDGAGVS
Chain of DRD1 (P21728 whole entry): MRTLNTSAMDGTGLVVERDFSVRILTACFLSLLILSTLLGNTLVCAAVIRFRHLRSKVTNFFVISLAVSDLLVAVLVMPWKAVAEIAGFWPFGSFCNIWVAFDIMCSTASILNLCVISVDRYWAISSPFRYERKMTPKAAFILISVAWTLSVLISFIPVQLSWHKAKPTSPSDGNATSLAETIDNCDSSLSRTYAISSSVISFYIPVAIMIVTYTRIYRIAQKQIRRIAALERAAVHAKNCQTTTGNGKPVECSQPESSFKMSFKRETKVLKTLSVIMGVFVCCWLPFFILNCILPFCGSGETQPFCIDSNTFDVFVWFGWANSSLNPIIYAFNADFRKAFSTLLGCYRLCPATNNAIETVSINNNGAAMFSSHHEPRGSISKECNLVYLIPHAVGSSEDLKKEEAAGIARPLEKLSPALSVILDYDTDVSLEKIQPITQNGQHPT
Chain of CHRM3 (P20309 whole entry): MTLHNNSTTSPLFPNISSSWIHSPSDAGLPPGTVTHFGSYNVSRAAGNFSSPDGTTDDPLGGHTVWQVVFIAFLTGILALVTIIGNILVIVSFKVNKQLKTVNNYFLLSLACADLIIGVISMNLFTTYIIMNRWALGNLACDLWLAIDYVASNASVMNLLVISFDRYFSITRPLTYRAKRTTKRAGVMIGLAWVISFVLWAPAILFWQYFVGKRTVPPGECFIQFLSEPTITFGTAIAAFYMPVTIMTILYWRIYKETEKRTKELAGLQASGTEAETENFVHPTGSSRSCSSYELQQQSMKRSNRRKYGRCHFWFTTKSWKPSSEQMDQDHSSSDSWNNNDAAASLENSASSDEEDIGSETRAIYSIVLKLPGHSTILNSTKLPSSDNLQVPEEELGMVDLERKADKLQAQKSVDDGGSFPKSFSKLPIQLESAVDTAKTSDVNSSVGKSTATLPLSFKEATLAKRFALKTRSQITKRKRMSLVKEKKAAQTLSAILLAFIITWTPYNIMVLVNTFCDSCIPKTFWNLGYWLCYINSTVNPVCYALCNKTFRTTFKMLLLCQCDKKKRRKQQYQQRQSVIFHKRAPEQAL
Chain of NMDAR (1A/2B) (Q13224 27-1484, other chains not shown): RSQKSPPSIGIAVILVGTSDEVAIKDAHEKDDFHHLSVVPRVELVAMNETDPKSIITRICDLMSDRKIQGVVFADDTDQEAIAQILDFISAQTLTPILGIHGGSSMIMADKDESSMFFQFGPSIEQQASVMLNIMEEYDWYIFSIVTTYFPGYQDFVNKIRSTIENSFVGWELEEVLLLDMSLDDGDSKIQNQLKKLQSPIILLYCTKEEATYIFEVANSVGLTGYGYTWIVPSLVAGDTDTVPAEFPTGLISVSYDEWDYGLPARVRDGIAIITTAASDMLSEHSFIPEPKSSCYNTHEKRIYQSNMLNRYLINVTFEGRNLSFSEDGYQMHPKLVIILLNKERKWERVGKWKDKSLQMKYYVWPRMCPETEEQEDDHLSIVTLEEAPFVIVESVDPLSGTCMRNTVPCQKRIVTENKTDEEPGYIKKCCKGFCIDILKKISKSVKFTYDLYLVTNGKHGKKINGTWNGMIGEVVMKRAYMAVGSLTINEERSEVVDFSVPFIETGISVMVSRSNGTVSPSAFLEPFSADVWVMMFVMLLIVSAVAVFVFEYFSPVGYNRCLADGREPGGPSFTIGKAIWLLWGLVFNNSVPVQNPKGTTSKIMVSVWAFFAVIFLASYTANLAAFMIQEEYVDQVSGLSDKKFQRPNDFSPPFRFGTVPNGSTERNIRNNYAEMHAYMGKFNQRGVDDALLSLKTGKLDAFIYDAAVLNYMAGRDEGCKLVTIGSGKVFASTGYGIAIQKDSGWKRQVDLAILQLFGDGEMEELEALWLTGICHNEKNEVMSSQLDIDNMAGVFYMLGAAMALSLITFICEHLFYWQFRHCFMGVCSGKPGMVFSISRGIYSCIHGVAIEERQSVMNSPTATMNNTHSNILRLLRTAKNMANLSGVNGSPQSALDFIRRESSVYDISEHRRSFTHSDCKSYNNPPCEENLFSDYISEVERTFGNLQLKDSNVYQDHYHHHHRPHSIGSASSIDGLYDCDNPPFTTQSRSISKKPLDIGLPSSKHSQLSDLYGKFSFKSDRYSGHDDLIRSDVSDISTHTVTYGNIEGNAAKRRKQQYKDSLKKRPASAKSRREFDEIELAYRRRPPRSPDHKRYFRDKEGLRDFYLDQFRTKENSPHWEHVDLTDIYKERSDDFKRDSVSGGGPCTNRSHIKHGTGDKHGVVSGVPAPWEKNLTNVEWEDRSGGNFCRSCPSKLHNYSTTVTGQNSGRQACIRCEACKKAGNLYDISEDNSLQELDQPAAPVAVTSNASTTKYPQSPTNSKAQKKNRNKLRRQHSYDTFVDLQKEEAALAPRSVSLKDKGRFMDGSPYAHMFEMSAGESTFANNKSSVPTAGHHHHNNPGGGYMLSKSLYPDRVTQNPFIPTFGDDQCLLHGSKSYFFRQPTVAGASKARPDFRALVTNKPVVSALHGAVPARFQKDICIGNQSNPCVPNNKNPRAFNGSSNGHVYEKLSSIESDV

## Cn1c(=O)c2c(c3cc(Nc4ccnc(F)c4Cl)ccc31)N[C@@H](C1CC1)C(F)(F)CO2 [compound 17, (S)-10-((3-chloro-2-fluoropyridin-4-yl)amino)-2-cyclopropyl-3,3-difluoro-7-methyl-1,2,3,4-tetrahydro-[1,4]oxazepino[2,3-c]quinolin-6(7H)-one]
nAChR(a4/b2)
  IC50: > 10 µM
nAChR(a4/b2); nAChR(a4/b2), Ion Channel, Blocker, read-out: Max Response
  Emax: 0%
DRD1
  EC50: > 10 µM
DRD1; DRD1, cAMP, Agonist, read-out: Max Response
  Emax: 0%
OCI-Ly3
  GI50: 1.85 µM
ADRB1 [1]
  Hill: 1.19
ADRB1 [1]; read-out: Max Response
  Emax: 88.7%
ADRB1 [1]; read-out: RC50 (IC50)
  IC50: 1.6 µM
GR; read-out: Max Response
  Emax: 0%
GR; read-out: RC50 (EC50)
  EC50: > 10 µM
OPRM1
  IC50: 4.36 µM
OPRM1; OPRM1, cAMP, Antagonist
  Hill: 0.72
OPRM1; OPRM1, cAMP, Antagonist, read-out: Max Response
  Emax: 56.3%
ADRB1 [2]; read-out: Max Response
  Emax: 0%
ADRB1 [2]; read-out: RC50 (EC50)
  EC50: > 10 µM
HTR3A
  IC50: > 10 µM
HTR3A; HTR3A, Ion Channel, Blocker, read-out: Max Response
  Emax: 0%
DRD2S
  IC50: > 10 µM
DRD2S; DRD2S, cAMP, Antagonist, read-out: Max Response
  Emax: 0%
ADORA2A; read-out: Max Response
  Emax: 0%
ADORA2A; read-out: RC50 (EC50)
  EC50: > 10 µM
CHRM3
  EC50: > 10 µM
CHRM3; CHRM3, Calcium Flux, Agonist, read-out: Max Response
  Emax: 0%
OPRK1
  IC50: > 10 µM
OPRK1; OPRK1, cAMP, Antagonist, read-out: Max Response
  Emax: 0.95%
NMDAR (1A/2B)
  IC50: > 10 µM
NMDAR (1A/2B); NMDAR (1A/2B), Ion Channel, Blocker, read-out: Max Response
  Emax: 0%
ADRB2
  Hill: 1.29
ADRB2; read-out: Max Response
  Emax: 89%
ADRB2; read-out: RC50 (IC50)
  IC50: 1.77 µM
CAV1.2
  Emax: 0%
  IC50: > 10 µM
HT
  GI50: 0.545 µM
